Assay results as given in patent US12398141B2 (SHANGHAI SYNERGY PHARMACEUTICAL SCIENCES CO., LTD, priority 2019, dated 2025).

What was measured:
Type in all cases: biochemical
[1] = molecular target: JAK1 (Homo sapiens (Human), UniProt P23458); experiment: JAK1 LANCE Ultra kinase assay; settings: for IC50: 38 uM ATP; for JAK2/JAK1: ratio of IC50 JAK2 to IC50 JAK1
Experimental: Inhibition test on activity of JAK kinase in vitro was carried out by the following methods.
JAK1 LANCE® Ultra assay, JAK2 LANCE® Ultra assay and JAK3 LANCE® Ultra assay were used to carry out the test separately, and kits of the above assays were supplied by PerkinElmer. […]
JAK1, JAK2 and JAK3 kinase, ATP and substrates were dissolved and diluted with buffers.
A test liquid was 2 nM Eu-W1024 anti-phosphotyrosine (PerkinElmer, AD0069). A stop buffer was 10 mM edetic acid (Intech, 1842C505).
2.5 μl of an 8-fold solution of the compound and 5 μl of a 4-fold solution of JAK1 or JAK2 or JAK3 kinase were added into a 384-well plate, respectively, and reacted for 10 minutes at room temperature. 2.5 μl of an 8-fold solution of ULight™-JAK-1 peptide/ATP was added and reacted for 90 minutes at room temperature. Finally, 5 μl of 4-fold edetic acid stop buffer and 5 μl of 4-fold test liquid of Eu-W1024 anti-phosphotyrosine were added and incubated for 60 minutes.
According to the formula: percentage of inhibition rate=(maximum value−transform value)/(maximum value−minimum value)×100, inhibition rate of each compound at various concentrations was calculated. The maximum value was the reference value of dimethyl sulfoxide added into the well plate, the minimum value was the blank value, and the transform value is the value obtained by the well of each compound. The IC50 values of the corresponding compounds were then obtained by fitting by using the XLFit fitting tool in excel.

[2] = molecular target: JAK2 (Homo sapiens (Human), UniProt O60674); experiment: JAK2 LANCE Ultra kinase assay; settings: 12 uM ATP
[3] = molecular target: JAK3 (Homo sapiens (Human), UniProt P52333); experiment: JAK3 LANCE Ultra kinase assay; settings: 4 uM ATP
Sequence of JAK3 (P52333 whole entry): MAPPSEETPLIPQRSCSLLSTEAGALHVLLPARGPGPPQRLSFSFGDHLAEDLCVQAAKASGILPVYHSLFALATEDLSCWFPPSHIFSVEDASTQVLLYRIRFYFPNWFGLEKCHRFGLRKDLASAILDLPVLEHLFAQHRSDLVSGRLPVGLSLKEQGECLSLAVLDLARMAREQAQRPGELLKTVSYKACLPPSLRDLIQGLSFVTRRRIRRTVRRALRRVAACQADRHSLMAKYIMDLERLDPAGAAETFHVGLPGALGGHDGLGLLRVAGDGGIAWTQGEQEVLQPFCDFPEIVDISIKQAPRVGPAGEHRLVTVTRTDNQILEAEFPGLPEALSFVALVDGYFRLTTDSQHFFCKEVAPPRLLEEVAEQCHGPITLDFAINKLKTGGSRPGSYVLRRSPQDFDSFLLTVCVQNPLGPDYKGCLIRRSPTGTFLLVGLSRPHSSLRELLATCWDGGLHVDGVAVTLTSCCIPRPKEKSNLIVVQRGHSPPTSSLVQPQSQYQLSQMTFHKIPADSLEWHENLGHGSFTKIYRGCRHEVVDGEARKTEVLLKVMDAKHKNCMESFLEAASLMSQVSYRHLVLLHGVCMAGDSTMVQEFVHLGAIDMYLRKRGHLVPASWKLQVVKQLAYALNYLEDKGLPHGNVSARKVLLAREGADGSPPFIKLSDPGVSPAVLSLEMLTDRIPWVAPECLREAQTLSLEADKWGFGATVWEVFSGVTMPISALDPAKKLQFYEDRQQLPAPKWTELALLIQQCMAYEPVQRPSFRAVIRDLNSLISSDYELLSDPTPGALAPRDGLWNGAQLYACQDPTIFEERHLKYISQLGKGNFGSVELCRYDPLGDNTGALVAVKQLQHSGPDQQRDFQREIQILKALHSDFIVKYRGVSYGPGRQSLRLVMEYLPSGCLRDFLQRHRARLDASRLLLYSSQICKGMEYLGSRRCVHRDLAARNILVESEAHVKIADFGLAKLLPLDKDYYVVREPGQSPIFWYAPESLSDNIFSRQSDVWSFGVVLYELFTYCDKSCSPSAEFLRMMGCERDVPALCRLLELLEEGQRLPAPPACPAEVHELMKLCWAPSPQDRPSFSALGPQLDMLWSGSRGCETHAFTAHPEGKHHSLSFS

Sequence of JAK1 (P23458 whole entry): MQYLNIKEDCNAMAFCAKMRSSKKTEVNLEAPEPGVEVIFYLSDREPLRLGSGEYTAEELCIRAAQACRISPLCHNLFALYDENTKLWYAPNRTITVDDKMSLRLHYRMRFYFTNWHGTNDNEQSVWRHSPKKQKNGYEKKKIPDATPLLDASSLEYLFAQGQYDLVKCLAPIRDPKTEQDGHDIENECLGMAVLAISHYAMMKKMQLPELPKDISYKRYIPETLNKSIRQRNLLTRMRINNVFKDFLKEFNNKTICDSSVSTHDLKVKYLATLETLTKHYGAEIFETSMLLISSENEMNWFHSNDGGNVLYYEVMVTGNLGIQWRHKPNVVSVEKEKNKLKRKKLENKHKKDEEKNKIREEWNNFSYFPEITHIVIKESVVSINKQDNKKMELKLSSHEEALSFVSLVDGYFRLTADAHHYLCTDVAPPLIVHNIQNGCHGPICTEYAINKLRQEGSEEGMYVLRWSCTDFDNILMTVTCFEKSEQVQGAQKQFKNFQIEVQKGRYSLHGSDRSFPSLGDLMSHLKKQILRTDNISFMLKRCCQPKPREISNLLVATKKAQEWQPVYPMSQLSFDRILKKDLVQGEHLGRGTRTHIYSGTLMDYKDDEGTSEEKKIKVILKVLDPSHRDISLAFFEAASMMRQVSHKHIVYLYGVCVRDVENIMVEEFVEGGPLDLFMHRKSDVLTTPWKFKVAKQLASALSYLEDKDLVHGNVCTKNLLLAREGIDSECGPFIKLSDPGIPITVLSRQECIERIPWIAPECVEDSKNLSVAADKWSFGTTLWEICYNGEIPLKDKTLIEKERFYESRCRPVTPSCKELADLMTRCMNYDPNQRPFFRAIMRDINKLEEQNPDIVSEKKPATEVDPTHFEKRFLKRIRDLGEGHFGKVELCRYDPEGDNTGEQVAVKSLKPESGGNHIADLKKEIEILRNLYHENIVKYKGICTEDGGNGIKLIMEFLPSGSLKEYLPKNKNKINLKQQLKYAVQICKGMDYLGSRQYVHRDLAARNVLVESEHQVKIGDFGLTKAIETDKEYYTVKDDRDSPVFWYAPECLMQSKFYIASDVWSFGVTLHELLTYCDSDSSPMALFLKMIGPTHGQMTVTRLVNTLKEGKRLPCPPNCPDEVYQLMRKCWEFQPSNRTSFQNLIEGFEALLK
Sequence of JAK2 (O60674 whole entry): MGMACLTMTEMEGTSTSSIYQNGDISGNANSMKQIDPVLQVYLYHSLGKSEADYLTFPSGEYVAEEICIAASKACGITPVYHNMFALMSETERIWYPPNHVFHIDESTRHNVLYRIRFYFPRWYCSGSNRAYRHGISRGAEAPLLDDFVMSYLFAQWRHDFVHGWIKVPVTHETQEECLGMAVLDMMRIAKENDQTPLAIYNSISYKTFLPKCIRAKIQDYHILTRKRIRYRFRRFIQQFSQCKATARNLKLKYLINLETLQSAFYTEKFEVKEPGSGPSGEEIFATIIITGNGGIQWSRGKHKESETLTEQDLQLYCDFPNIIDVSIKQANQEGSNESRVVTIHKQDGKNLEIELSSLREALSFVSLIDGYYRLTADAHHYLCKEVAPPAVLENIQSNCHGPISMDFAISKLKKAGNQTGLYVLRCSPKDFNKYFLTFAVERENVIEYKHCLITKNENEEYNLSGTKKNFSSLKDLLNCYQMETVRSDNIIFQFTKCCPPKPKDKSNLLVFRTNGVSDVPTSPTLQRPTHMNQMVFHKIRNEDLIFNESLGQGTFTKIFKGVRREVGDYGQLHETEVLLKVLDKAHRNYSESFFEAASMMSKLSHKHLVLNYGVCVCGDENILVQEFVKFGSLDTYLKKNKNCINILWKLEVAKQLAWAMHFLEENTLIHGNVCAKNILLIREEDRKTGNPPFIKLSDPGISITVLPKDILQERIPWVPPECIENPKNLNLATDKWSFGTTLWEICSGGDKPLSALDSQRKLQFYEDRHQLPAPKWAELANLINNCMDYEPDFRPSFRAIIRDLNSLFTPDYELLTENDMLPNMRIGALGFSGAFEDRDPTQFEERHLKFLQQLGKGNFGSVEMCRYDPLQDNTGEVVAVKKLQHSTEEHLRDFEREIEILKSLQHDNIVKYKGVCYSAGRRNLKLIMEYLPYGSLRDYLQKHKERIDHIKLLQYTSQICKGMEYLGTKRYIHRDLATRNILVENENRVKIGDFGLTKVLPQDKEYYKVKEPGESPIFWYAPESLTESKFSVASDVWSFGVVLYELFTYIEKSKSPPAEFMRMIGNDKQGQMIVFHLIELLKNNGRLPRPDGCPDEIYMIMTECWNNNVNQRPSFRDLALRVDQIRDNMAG

IC50 [1]	JAK2/JAK1 [1]	IC50 [2]	IC50 [3]	SMILES
2.59 nM	6.83	17.7 nM	253 nM	CN(C)Cc1nsc(NC(=O)N2C[C@H]3C[C@H](Nc4c(C#N)cnc5[nH]ccc45)C[C@H]3C2)n1 [Compound H55, (3aR,5s,6aS)-5-((5-cyano-1H-pyrrole[2,3-b]pyridin-4-yl)amino)-N-(3-((dimethylamino)methyl)-1,2,4-thiadiazole-5-yl)hexahydrocyclopenta[c]pyrrole-2(1H)-carboxamide]
0.79 nM	10.06	7.95 nM	69 nM	COCCOc1nsc(NC(=O)N2C[C@H]3C[C@H](Nc4c(C#N)cnc5[nH]ccc45)C[C@H]3C2)n1 [Compound H52, (3aR,5S,6aS)-5-((5-cyano-1H-pyrrolo[2,3-b]pyridin-4-yl)amino)-N-(3-(2-methoxyethoxy)-1,2,4-thiadiazole-5-yl)hexahydrocyclopenta[c]pyrrole-2(1H)-carboxamide]
2.67 nM	7.49	20 nM	130 nM	CCOc1noc(NC(=O)N2C[C@H]3C[C@H](N(C)c4c(C#N)cnc5[nH]ccc45)C[C@H]3C2)n1 [Compound H47, (3aR,5s,6aS)-5-((5-cyano-1H-pyrrolo[2,3-b]pyridin-4-yl)(methyl)amino)-N-(3-ethoxy-1,2,4-oxadiazole-5-yl)hexahydrocyclopentadiene[c]pyrrole-2(1H)-carboxamide]
5.6 nM	6.25	35 nM	153 nM	CC[C@@H]1CC(NS(=O)(=O)c2cccc(C(F)(F)F)c2)C[C@@H]1Nc1c(C#N)cnc2[nH]ccc12 (some centres unmarked) [Compound H60, N-(3-((5-cyano-1H-pyrrolo[2,3-b]pyridin-4-yl)amino)-4-ethylcyclopentyl)-3-(trifluoromethyl)benzsulfamide]
0.89 nM	7.19	6.4 nM	48 nM	COCc1nsc(NC(=O)N2C[C@H]3C[C@H](Nc4c(C#N)cnc5[nH]ccc45)C[C@H]3C2)n1 [Compound H57]
7.16 nM	18.85	135 nM	533 nM	C[C@H](O)C(=O)N1C[C@H]2C[C@H](N(C)c3c(C#N)cnc4[nH]ccc34)C[C@H]2C1 [Compound H23, (3aR,5S,6aS)-4-{[2-((2S)-2-hydroxypropionyl)-hexahydrocyclopenta[c]pyrrole-5-yl]-methyl-amino}-1H-pyrrolo[2,3-b]pyridin-5-carbonitrile]
1.13 nM	8.67	9.8 nM	68 nM	CCCS(=O)(=O)N[C@H]1C[C@@H](Nc2c(C#N)cnc3[nH]ccc23)C1 [Compound H46, (cis)-4-{[3-(propanesulfonamido)-cyclobutyl-1-yl]-amino}-1H-pyrrolo [2,3-b]pyridin-5-carbonitrile]
1.41 nM	20.57	29 nM	169 nM	CC[C@@H]1CN(C(=O)NCC(C)(C)C)C[C@@H]1Nc1c(C#N)cnc2[nH]ccc12 (relative stereo) [Compound H86, (cis)-3-((5-cyano-1H-pyrrolo[2,3-b]pyridin-4-yl)amino)-4-ethyl-N-neopentyl-pyrrolidin-1-carboxamide]
5.9 nM	8.47	50 nM	77 nM	CN(c1c(C#N)cnc2[nH]ccc12)[C@H]1C[C@@H]2CN(C(=O)Nc3nc(OCC(C)(C)O)ns3)C[C@@H]2C1 [Compound H45, (3aR,5s,6aS)-5-((5-cyano-1H-pyrrolo[2,3-b]pyridin-4-yl)(methyl)amino)-N-(3-(2-hydroxy-2-methyl-propoxy)-1,2,4-thiadiazole-5-yl)hexahydrocyclopentadiene[c]pyrrole-2(1H)-carboxamide]
9.16 nM	14.41	132 nM	633 nM	CN(c1c(C#N)cnc2[nH]ccc12)C1CC(NS(=O)(=O)c2ccc(C(F)(F)F)cc2)C1 (stereo not drawn) [Compound H16, (cis)-4-{[3-(4-trifluoromethylbenzenesulfonamido)-cyclobutyl-1-yl]-methyl-amino}-1H-pyrrolo[2,3-b]pyridin-5-carbonitrile]
10.3 nM	2.82	29 nM	75 nM	N#Cc1cnc2[nH]ccc2c1N[C@H]1CN(C(=O)NCC(F)(F)F)CC12CC2 [Compound H72, (R)-7-((5-cyano-1H-pyrrolo[2,3-b]pyridin-4-yl)amino)-N-(2,2,2-trifluoroethyl)-5-azaspiro[2.4]heptane-5-carboxamide]
2.96 nM	7.09	21 nM	58.9 nM	N#Cc1cnc2[nH]ccc2c1N[C@H]1C[C@@H](NS(=O)(=O)c2cccc(C(F)(F)F)c2)C1 [Compound H13, (cis)-4-{[3-(3-(trifluoromethyl)benzenesulfonamido)-cyclobutyl-1-yl]-amino}-1H-pyrrolo[2,3-b]pyridin-5-carbonitrile]
0.67 nM	14.18	9.5 nM	76 nM	CNCC1CCN(S(=O)(=O)C[C@H]2CC[C@H](N(C)c3c(C#N)cnc4[nH]ccc34)CC2)C1 (stereo partly drawn) [Compound H67, 4-(methyl-(trans-4-(((3-((methylamino)methyl)pyrrolidin-1-yl)sulfonyl)methyl)cyclohexyl)amino)-1H-pyrrolo[2,3-b]pyridin-5-carbonitrile]
0.86 nM	9.19	7.9 nM	112 nM	CC[C@@H]1CN(CCC#N)C[C@@H]1Nc1c(C#N)cnc2[nH]ccc12 (relative stereo) [Compound H88, 4-(((cis)-1-(2-cyanoethyl)-4-ethylpyrrolidin-3-yl)amino)-1H-pyrrolo[2,3-b]pyridin-5-carbonitrile]
8.9 nM	7.75	69 nM	172 nM	CCC1CN(C(=O)NCC2CC2)CC1Nc1c(C#N)cnc2[nH]ccc12 (centres unmarked) [Compound H82, 3-((5-cyano-1H-pyrrolo[2,3-b]pyridin-4-yl)amino)-4-ethyl-N-(cyclopropylmethyl)pyrrolidin-1-carboxamide]
5.1 nM	2.40	12.6 nM	28 nM	CN(c1c(C#N)cnc2[nH]ccc12)[C@H]1C[C@@H]2CN(S(=O)(=O)c3cccc(C(F)(F)F)c3)C[C@@H]2C1 [Compound H24]
1.43 nM	7.01	10 nM	82 nM	COCc1nsc(NC(=O)N2C[C@H]3C[C@H](N(C)c4c(C#N)cnc5[nH]ccc45)C[C@H]3C2)n1 [Compound H56]
0.76 nM	7.51	5.71 nM	68 nM	N#Cc1cn2c(n1)CC(Nc1c(C#N)cnc3[nH]ccc13)CC2 (centres unmarked) [Compound H90, 7-((5-cyano-1H-pyrrolo[2,3-b]pyridin-4-yl)amino)-5,6,7,8-tetrahydroimidazo[1,2-a]pyridin-2-carbonitrile]
0.92 nM	20.33	18.7 nM	96 nM	O=C(NCC(F)(F)F)N1C[C@H](Nc2c(C(F)(F)F)cnc3[nH]ccc23)[C@H](C2CC2)C1 (relative stereo) [Compound H91, (cis)-3-cyclopropyl-N-(2,2,2-trifluoroethyl)-4-((5-(trifluoromethyl)-1H-pyrrolo[2,3-b]pyridin-4-yl)amino)pyrrolidin-1-carboxamide]
6 nM	2.67	16 nM	42 nM	CCC1CN(C(=O)CC#N)CC1Nc1c(C#N)cnc2[nH]ccc12 (centres unmarked) [Compound H78, 4-((4-ethyl-1-(2-cyanoacetyl)pyrrolidin-3-yl)amino)-1H-pyrrolo[2,3-b]pyridin-5-carbonitrile]
9.5 nM	14.21	135 nM	220 nM	CN(c1c(C#N)cnc2[nH]ccc12)[C@H]1C[C@@H]2CN(S(=O)(=O)c3cccc(F)c3)C[C@@H]2C1 [Compound H28]
4.9 nM	6.12	30 nM	157 nM	CC(C)[C@@H]1CN(C(=O)NCC(F)(F)F)C[C@@H]1Nc1c(C#N)cnc2[nH]ccc12 (relative stereo) [Compound H73, (cis)-3-((5-cyano-1H-pyrrolo[2,3-b]pyridin-4-yl)amino)-4-isopropyl-N-(2,2,2-trifluoroethyl)pyrrolidin-1-carboxamide]
6.89 nM	4.49	30.9 nM	101 nM	COCCOc1nsc(NC(=O)N2C[C@H]3C[C@H](N(C)c4c(C#N)cnc5[nH]ccc45)C[C@H]3C2)n1 [Compound H51, (3aR,5S,6aS)-5-((5-cyano-1H-pyrrolo[2,3-b]pyridin-4-yl)(methyl)amino)-N-(3-(2-methoxyethoxy)-1,2,4-thiadiazole-5-yl)hexahydrocyclopenta[c]pyrrole-2(1H)-carboxamide]
